Assay results taken from publication PMC4138103 (PLoS ONE, 2014).
pIC50: −log10 of the molar value. Like-named read-outs stand apart in the source and are kept apart here.

Assays:
[1] = tested on: HepG2 cells; parameters: method as in Al-Anati et al., in preparation; settings: ref Al-Anati et al., in preparation; cited from earlier work
[2] = target: T1, human TTR (Homo sapiens, UniProt P02766); test: Competition with [125I]-T4 for binding to transthyretin; settings: for Relative potency (REP), Exp 1 / Relative potency (REP), Exp 2 / Relative potency (REP), Mean: TTR binding relative to T4; for pIC50: TTR binding, [125I]-T4 competition
T1 construct: purchased Sigma Aldrich
Description: Full dose-response curves within the range of 1–100 nM were determined for each OH-PCB metabolite.

[3] = target: T1, human TTR; test: as above; settings: @100 nM
[4] = tested on: rats; parameters: method as in PMID 8935785; settings: dietary exposure 90 days; cited from earlier work
[5] = read-out: IC50, Full dose-resonse experiments, Exp 1
[6] = read-out: IC50, Full dose-resonse experiments, Exp 2

Row | SMILES | Expression of DNA damage markers pChk1Ser317 and γH2AXSer319 [1] | Relative potency (REP), Exp 1 [2] | Relative potency (REP), Exp 2 [2] | Relative potency (REP), Mean [2] | pIC50 ([2]; n = 2, read-out: IC50, Mean) | pIC50 [2, 5] | pIC50 [2, 6] | T4 displacement, Pilot experiment [3] | NOAEL [4] | NOAEL, equivalent daily dose [4] | NOAEL, equivalent total dose [4]
1 | Oc1c(Cl)c(Cl)cc(-c2cc(Cl)c(Cl)c(Cl)c2Cl)c1Cl [3'-OH-PCB 180] | induced | 3.96 | 2.84 | 3.40 | 7.75 | 7.79 | 7.71 | 95% T4 displacement @100 nM | – | – | –
2 | Oc1c(Cl)cc(Cl)c(-c2cc(Cl)c(Cl)c(Cl)c2Cl)c1Cl [3' OH-PCB 182] | – | 3.68 | 2.68 | 3.18 | 7.72 | 7.76 | 7.69 | 93% T4 displacement @100 nM | – | – | –
3 | Oc1c(Cl)cc(-c2cc(Cl)c(Cl)c(Cl)c2Cl)c(Cl)c1Cl [4'-OH-PCB 172] | – | 5.37 | 3.90 | 4.64 | 7.89 | 7.92 | 7.85 | 95% T4 displacement @100 nM | – | – | –
4 | Oc1c(Cl)c(Cl)c(Cl)c(-c2cc(Cl)c(Cl)cc2Cl)c1Cl [5-OH-PCB 183] | – | 3.54 | 2.61 | 3.08 | 7.71 | 7.74 | 7.68 | 92% T4 displacement @100 nM | – | – | –
5 | Clc1cc(Cl)c(-c2cc(Cl)c(Cl)cc2Cl)cc1Cl [PCB 153, 2,2′,4,4′,5,5′-hexachlorobiphenyl] | – | – | – | – | – | – | – | – | 0.5 mg/kg diet | 34 µg/kg bw/day | 3.1 mg/kg bw
